Test results taken from patent US20050282818A1, “Ubiquitin ligase inhibitors” (Rigel Pharmaceuticals, Inc., priority 2004, published 2005).

Columns and labels:
[1] = system: ICAM-1 expression in A549 cells; assay: ICAM assay (IL-1 induced ICAM-1/CD54 expression in A549 cells); format: cell-based, human; conditions: Homo sapiens, A549, ICAM assay
From the text: The expression of intercellular adhesion molecule (ICAM)-1 in endothelial cells is pivotal in supporting lymphocyte migration across the vascular endothelium. TNF/IL-1 induces the NF-kB pathway in which NF-kB acts as a transcription factor and activation of NF-kB induces ICAM expression. IkB inhibits NF-KB by binding to it and retaining NF-kB in the cytoplasm. Upon cytokine stimulation, several signaling molecule including TRAF6, IKKs, and TAK1 are activated which lead to the phosphorylation of IkB. Phosphorylated IkB is then ubiquitinated by the SCF complex and degraded by proteasome, thereby releasing NF-kB to translocate into the nucleus. In the nucleus, NF-kB binds to DNA and activates transcription of various genes that are involved in inflammation, cell survival, and apoptosis. The ICAM assay is a primary assay for HTS as well as a cell based assay for TRAF6 inhibitors.
The following materials are used 96-well plates; F12K complete medium that includes 10% FBS and 1% P/S (penicillin/streptomycin); 1×PBS; 5 ug/ml IL-1, Human CD54 (CALTAG Laboratory, Cat#MHCD5400-4); anti-mouse-IgG (Jackson Lab, Cat#115-035 146); and A549 cells.
Procedure. 10,000 A549 cells/well were seeded in 100 μl F12K complete medium in a 96-well white plate. The seeded plate was incubate at 37° C. incubator in 5% CO2 overnight. After the overnight incubation, 4 μl of diluted test compound was added and incubated for 1 hour at 37° C. After the 1 hour incubation, 4 μl of 25 ng/ml IL-1 was added to each well and the cells were stimulated at 37° C. for 4 hours.
After stimulation, the cells were stained with CD54 (1:1000 diluted with medium) and anti-mouse IgG (1:1100 diluted with medium) for 1 hour. Subsequently, the medium was removed and each well was washed with 200 μl of PBS three times. Detection of activity was performed by addition of 100 μl/well of lumino substrate.

[2] = target: APC11/APC2 (Homo sapiens, UniProt Q9NYG5+Q9UJX6); assay: APC-11/APC-2 ligase assay (APC auto ubiquitination); format: biochemical; conditions: APC assay
Chain of APC11/APC2 (Q9NYG5 whole entry): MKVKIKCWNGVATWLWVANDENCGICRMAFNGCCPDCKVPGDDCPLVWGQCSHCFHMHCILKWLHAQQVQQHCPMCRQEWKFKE
Chain of APC11/APC2 (Q9UJX6 whole entry): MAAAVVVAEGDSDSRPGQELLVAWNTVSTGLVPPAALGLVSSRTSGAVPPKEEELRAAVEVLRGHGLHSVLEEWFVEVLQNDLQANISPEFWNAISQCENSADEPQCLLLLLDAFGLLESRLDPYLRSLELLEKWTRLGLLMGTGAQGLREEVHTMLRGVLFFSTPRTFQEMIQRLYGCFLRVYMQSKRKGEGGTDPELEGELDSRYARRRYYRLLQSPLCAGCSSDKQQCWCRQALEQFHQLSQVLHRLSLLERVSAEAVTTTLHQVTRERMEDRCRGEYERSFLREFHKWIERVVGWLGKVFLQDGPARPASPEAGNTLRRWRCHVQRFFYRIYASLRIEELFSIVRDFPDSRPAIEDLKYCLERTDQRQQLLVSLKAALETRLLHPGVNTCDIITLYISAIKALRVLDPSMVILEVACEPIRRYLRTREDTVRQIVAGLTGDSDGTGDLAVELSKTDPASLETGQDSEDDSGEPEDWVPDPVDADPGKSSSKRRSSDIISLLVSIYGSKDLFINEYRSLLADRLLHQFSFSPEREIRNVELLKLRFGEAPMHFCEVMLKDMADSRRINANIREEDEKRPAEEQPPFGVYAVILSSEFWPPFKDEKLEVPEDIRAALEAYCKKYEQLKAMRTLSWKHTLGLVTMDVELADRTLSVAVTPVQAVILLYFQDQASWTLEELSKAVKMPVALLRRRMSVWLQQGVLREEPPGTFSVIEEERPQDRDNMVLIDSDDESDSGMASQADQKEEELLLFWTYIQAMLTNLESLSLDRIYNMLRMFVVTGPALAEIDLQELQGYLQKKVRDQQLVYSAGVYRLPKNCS
Procedure: For the assays described below, the TRAF6/Uev1A/UBC13 assay is the biochemical plate-based assay of TRAF6 ligase activity using Ubc13 as the E2 enzyme. The gel-based assay is the biochemical solution-based TRAF6 ligase assay (by SDS-PAGE and Western blot) to confirm the plate-based ELISA assay. The APC assay is an assay which is another E3 ligase (APC2/APC11) biochemical assay.
E3 (His APC11/APC2— “APC”) auto ubiquitination was measured as described in U.S. patent application Ser. No. 09/826,312 (Publication No. U.S. 2002 0042083 A1), which is incorporated by reference in its entirety. Details of the protocol are described below. Activity in the presence of the compound was determined relative to a parallel control in which only DMSO was added. Values of the IC50 were typically determined using 6 or 8 different concentrations of the compound, although as few as 2 concentrations may be used to approximate the IC50 value.
Nickel coated 96 well plates (Pierce 15242) were blocked for 1 hour with 100 μl of blocking buffer at room temperature. The plates were washed 4 times with 225 μl of 1 […]PBS and 80 μl of the reaction buffer were added that contained 100 ng/well of Flag ubiquitin. To this, 10 μl of the test compound diluted in DMSO were added. After the test compound was added, 10 μl of E1 (human), E2 (Ubch5c), and APC in Protein Buffer was added to obtain a final concentration of 5 ng/well of E1, 20 ng/well of E2 and 100 ng/well of APC. The plates were shaken for 10 minutes and incubated at room temperature for 1 hour. After incubation, the plates were washed 4 times with 225 μl of 1×PBS and 100 μl/well of Antibody Mix were added to each well. The plates were incubated at room temperature for another hour after which they were washed 4 times with 225 μl of 1×PBS and 100 μl/well of Lumino substrate were added to each well. The luminescence was measured by using a BMG luminescence microplate reader. The Blocking Buffer (1% Casein in 1×PBS) was stored at 4° C. until use.
The reaction buffer consisted of 62.5 mM Tris pH 7.6 (Trizma Base—Sigma T 8524), 3 mM MgCl2 (Magnesium Chloride—Sigma M 2393), 1 mM DTT (Sigma D 9779), 2.5 mM ATP (Roche Boehringer Mann Corp. 635 316), 100 ng/well of Flag ubiquitin, 0.1% BSA (Sigma A 7906), and 0.05% Tween 20 (Sigma P 7949).
The Protein Buffer consisted of 20 mM Tris pH 7.6, 10% glycerol (Sigma G 5516) and 1 mM DTT.
The antibody mix consisted of 0.25% BSA (Sigma A 7906) in 1×PBS, 1/50,000 anti Flag (Sigma F 3165), 1/100,000 of anti Mouse IgG HRP (Jackson Imrunoresearch #115 035 146).
The substrate mix consisted of SuperSignal Substrate from Pierce (catalog number 37070ZZ) and was prepared by mixing 100 ml of the peroxide solution, 100 ml of the enhancer solution and 100 ml of Milli Q® water.

[3] = target: T1, TRAF6/Uev1A/Ubc13 (Homo sapiens, UniProt Q9Y4K3); assay: TRAF6/Uev1A/Ubc13 plate-based ubiquitin ligase assay; format: biochemical
T1 sequence (Q9Y4K3 1-522): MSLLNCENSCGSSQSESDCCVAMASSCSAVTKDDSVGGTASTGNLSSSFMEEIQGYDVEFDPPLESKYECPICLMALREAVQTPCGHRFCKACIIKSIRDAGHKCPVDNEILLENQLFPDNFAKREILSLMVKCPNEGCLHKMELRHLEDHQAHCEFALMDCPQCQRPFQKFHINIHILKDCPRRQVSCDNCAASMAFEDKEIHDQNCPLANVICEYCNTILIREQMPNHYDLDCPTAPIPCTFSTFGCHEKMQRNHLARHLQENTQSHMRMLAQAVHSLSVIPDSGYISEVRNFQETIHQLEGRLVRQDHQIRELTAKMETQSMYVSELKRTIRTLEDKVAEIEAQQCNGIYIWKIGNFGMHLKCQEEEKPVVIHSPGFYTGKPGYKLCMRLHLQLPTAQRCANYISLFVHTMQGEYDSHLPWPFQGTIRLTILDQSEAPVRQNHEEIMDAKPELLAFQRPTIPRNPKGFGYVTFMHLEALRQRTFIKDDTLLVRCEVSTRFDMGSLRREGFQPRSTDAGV
How it was run: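 Ligase activity was read as luminescence from anti-Flag/HRP detection of Flag-ubiquitin bound to casein-blocked Ni-plates alongside His-ubiquitin after a 1 h room-temperature reaction. Buffer: 62.5 mM Tris pH 7.5, 6.25 mM MgCl2, 1.0 mM DTT, 2 μM ATP; E1, Uev1a/Ubc13 and TRAF6 added last to start. IC50s derived across compound concentrations.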

Compound | IC50 [1] | IC50 [2] | IC50 [3]
COc1ccccc1Nc1ccc(S(=O)(=O)Nc2ccccc2F)c2nonc12 [compound 404, N-(2-fluorophenyl)-7-([2-methoxyphenyl]amino)-2,1,3-benzoxadiazole-4-sulfonamide] | ≥ 20 µM | ≥ 20 µM | ≥ 20 µM
O=S(=O)(Nc1cccc(F)c1F)c1ccc(Sc2ccc(O)cc2)c2nonc12 [compound 402, N-(2,3-difluorophenyl)-7-([4-hydroxyphenyl]thio)-2,1,3-benzoxadiazole-4-sulfonamide] | ≥ 20 µM | 1 to 20 µM | ≥ 20 µM
Cc1cccc(C(C)C)c1NS(=O)(=O)c1ccc(Cl)c2nonc12 [compound 352, 7-chloro-N-(2-isopropyl-6-methylphenyl)-2,1,3-benzoxadiazole-4-sulfonamide] | 1 to 20 µM | ≥ 20 µM | ≥ 20 µM
COc1cccc(NS(=O)(=O)c2c(Cl)ccc3nonc23)c1OC [compound 409, 5-chloro-N-(2,3-dimethoxyphenyl)-2,1,3-benzoxadiazole-4-sulfonamide] | 1 to 20 µM | ≥ 20 µM | ≥ 20 µM
Nc1ccc(OS(=O)(=O)c2ccc(Cl)c3nonc23)c2ccccc12 [compound 391, 4-aminonaphthalen-1-yl 7-chloro-2,1,3-benzoxadiazole-4-sulfonate] | 1 to 20 µM | 1 to 20 µM | 1 to 20 µM
Cc1ccc(NS(=O)(=O)c2ccc(Cl)c3nonc23)c(Cl)c1 [compound 354, 7-chloro-N-(2-chloro-4-methylphenyl)-2,1,3-benzoxadiazole-4-sulfonamide] | 1 to 20 µM | ≥ 20 µM | ≥ 20 µM
Cc1cc(NS(=O)(=O)c2ccc(Cl)c3nonc23)no1 [compound 368, 7-chloro-N-(5-methylisoxazol-3-yl)-2,1,3-benzoxadiazole-4-sulfonamide] | ≥ 20 µM | ≥ 20 µM | ≥ 20 µM
CC(C)c1ccccc1NS(=O)(=O)c1ccc(Cl)c2nonc12 [compound 347, 7-chloro-N-(2-isopropylphenyl)-2,1,3-benzoxadiazole-4-sulfonamide] | 1 to 20 µM | ≥ 20 µM | ≥ 20 µM
COc1ccccc1NS(=O)(=O)c1ccc(Cl)c2nonc12 [compound 356, 7-chloro-N-(2-methoxyphenyl)-2,1,3-benzoxadiazole-4-sulfonamide] | 1 to 20 µM | ≥ 20 µM | ≥ 20 µM
O=C1OC2(CCN(S(=O)(=O)c3c(Cl)ccc4nonc34)CC2)c2ccccc21 [compound 337, 1′-{[5-chloro-(2,1,3-benzoxadiazol-4-yl)]sulfonyl}-3H-spiro[2-benzofuran-1,4′-piperidin]-3-one] | < 1 µM | ≥ 20 µM | ≥ 20 µM
O=S(=O)(Nc1cccc2ccc(O)cc12)c1ccc(Cl)c2nonc12 [compound 383, 7-chloro-N-(7-hydroxynaphthalen-1-yl)-2,1,3-benzoxadiazole-4-sulfonamide] | 1 to 20 µM | 1 to 20 µM | 1 to 20 µM

The remaining lines, values ahead:

IC50 [1] | IC50 [2] | IC50 [3] | Compound
≥ 20 µM | ≥ 20 µM | ≥ 20 µM | CC(C)(C)c1ccc(-c2cc(N3CCCCC3)c([N+](=O)[O-])c3nonc23)cc1 [compound 433, 7-(4-t-butylphenyl)-4-nitro-5-(piperidin-1-yl)-2,1,3-benzoxadiazole]
≥ 20 µM | ≥ 20 µM | ≥ 20 µM | O=[N+]([O-])c1c(N2CCCCC2)cc(-c2cc(F)cc(F)c2)c2nonc12 [compound 428, 7-(3,5-difluorophenyl)-4-nitro-5-(piperidin-1-yl)-2,1,3-benzoxadiazole]
≥ 20 µM | ≥ 20 µM | ≥ 20 µM | Cc1cccc(-c2cc3nsnc3cc2F)c1C [compound 457, 5-(2,3-dimethylphenyl)-6-fluoro-2,1,3-benzthiadiazole]
≥ 20 µM | ≥ 20 µM | ≥ 20 µM | FC(F)(F)c1cc(-c2ccccc2)c2nonc2c1 [compound 474, 4-phenyl-6-(trifluoromethyl)-2,1,3-benzoxadiazole]
≥ 20 µM | ≥ 20 µM | ≥ 20 µM | O=C1CCCN1CCCNS(=O)(=O)c1ccc(Cl)c2nonc12 [compound 456, 7-chloro-N-(3-[2-oxopyrrolidin-1-yl]propyl)-2,1,3-benzoxadiazole-4-sulfonamide]
≥ 20 µM | 1 to 20 µM | ≥ 20 µM | O=[N+]([O-])c1ccc(-c2ccccc2)c2nonc12 [compound 440, 4-nitro-7-phenyl-2,1,3-benzoxadiazole]
≥ 20 µM | ≥ 20 µM | ≥ 20 µM | O=S(=O)(NCCCc1ccccc1)c1ccc(Cl)c2nonc12 [compound 445, 7-chloro-N-(3-phenylpropyl)-2,1,3-benzoxadiazole-4-sulfonamide]
1 to 20 µM | 1 to 20 µM | 1 to 20 µM | Cc1ccc(-c2ccc([N+](=O)[O-])c3nonc23)cc1C [compound 472, 4-(3,4-dimethylphenyl)-7-nitro-2,1,3-benzoxadiazole]
1 to 20 µM | ≥ 20 µM | ≥ 20 µM | O=S(=O)(c1c(N2CCOCC2)cc(Cl)c2nonc12)N1CCOCC1 [compound 412, 7-chloro-5-(morpholin-4-yl)-4-{(morpholin-4-yl)sulfonyl}-2,1,3-benzoxadiazole]
1 to 20 µM | ≥ 20 µM | ≥ 20 µM | O=[N+]([O-])c1ccc(C2=CCCCC2)c2nonc12 [compound 451, 4-cyclohexenyl-7-nitro-2,1,3-benzoxadiazole]
